According to PubChem BioAssay AID1963854 (Molecular Pharmacology Branch, DTP, NCI, 2024):

System: 186277-243-T-J2-PDC complex spheroid viability
Assay: Anticancer human tumor 186277-243-T-J2-PDC patient-derived colon adenocarcinoma cell line growth inhibition [POLQ]
Conditions: for IC50: curve of first compound; for viability, T/C: stronger effect = lower value
Method in brief: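 Patient-derived tumour cells were co-cultured with HUVEC and mesenchymal stem cells as multicellular spheroids at 37 °C. They were treated with POLQ inhibitors (novobiocin, ART-558, RP6685) alone or combined with other agents. Top concentrations were at or near clinical Cmax (otherwise 10 microM; SN-38 at 1 microM), decreasing in half-log steps.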

[1] = second compound 0.0316 µM, first compound 0.0316 µM
[2] = second compound 0.0316 µM, first compound 0.1 µM
[3] = second compound 0.0316 µM, first compound 0.316 µM
[4] = second compound 0.0316 µM, first compound 1 µM
[5] = second compound 0.0316 µM, first compound 3.16 µM
[6] = second compound 0.0316 µM, first compound 10 µM
[7] = second compound 0.1 µM, first compound 0.0316 µM
[8] = second compound 0.1 µM, first compound 0.1 µM
[9] = second compound 0.1 µM, first compound 0.316 µM
[10] = second compound 0.1 µM, first compound 1 µM
[11] = second compound 0.1 µM, first compound 3.16 µM
[12] = second compound 0.1 µM, first compound 10 µM
[13] = second compound 0.316 µM, first compound 0.0316 µM
[14] = second compound 0.316 µM, first compound 0.1 µM
[15] = second compound 0.316 µM, first compound 0.316 µM
[16] = second compound 0.316 µM, first compound 1 µM
[17] = second compound 0.316 µM, first compound 3.16 µM
[18] = second compound 0.316 µM, first compound 10 µM
[19] = second compound 1 µM, first compound 0.0316 µM
[20] = second compound 1 µM, first compound 0.1 µM
[21] = second compound 1 µM, first compound 0.316 µM
[22] = second compound 1 µM, first compound 1 µM
[23] = second compound 1 µM, first compound 3.16 µM
[24] = second compound 1 µM, first compound 10 µM
[25] = second compound 3.16 µM, first compound 0.0316 µM
[26] = second compound 3.16 µM, first compound 0.1 µM
[27] = second compound 3.16 µM, first compound 0.316 µM
[28] = second compound 3.16 µM, first compound 1 µM
[29] = second compound 3.16 µM, first compound 3.16 µM
[30] = second compound 3.16 µM, first compound 10 µM
[31] = second compound 10 µM, first compound 0.0316 µM
[32] = second compound 10 µM, first compound 0.1 µM
[33] = second compound 10 µM, first compound 0.316 µM
[34] = second compound 10 µM, first compound 1 µM
[35] = second compound 10 µM, first compound 3.16 µM
[36] = second compound 10 µM, first compound 10 µM
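Note: spheroids exposed to compounds for seven days.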
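Throughout, for viability, T/C: 100% = DMSO vehicle control viability.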

Compound: CCc1cc2c(N3CCc4c(cc(Cn5ccnc5)cc4-c4cn(C)nc4C(F)(F)F)C3=O)cc(C)nc2c(OC)n1 + Cc1cccc(N(C)C(=O)C2C(O)CCN2c2nc(C)cc(C(F)(F)F)c2C#N)c1
- IC50 (second compound 0.0316 µM): > 10 µM
- IC50 (second compound 0.1 µM): > 10 µM
- IC50 (second compound 0.316 µM): > 10 µM
- IC50 (second compound 1 µM): > 10 µM
- IC50 (second compound 3.16 µM): > 10 µM
- IC50 (second compound 10 µM): > 10 µM
- viability, T/C [1]: 111%
- viability, T/C [2]: 86.9%
- viability, T/C [3]: 98.8%
- viability, T/C [4]: 97.1%
- viability, T/C [5]: 93.9%
- viability, T/C [6]: 95.2%
- viability, T/C [7]: 90.8%
- viability, T/C [8]: 91.3%
- viability, T/C [9]: 96.8%
- viability, T/C [10]: 99.4%
- viability, T/C [11]: 112%
- viability, T/C [12]: 83.2%
- viability, T/C [13]: 97%
- viability, T/C [14]: 101%
- viability, T/C [15]: 101%
- viability, T/C [16]: 114%
- viability, T/C [17]: 116%
- viability, T/C [18]: 92.5%
- viability, T/C [19]: 99.4%
- viability, T/C [20]: 96.9%
- viability, T/C [21]: 107%
- viability, T/C [22]: 111%
- viability, T/C [23]: 115%
- viability, T/C [24]: 83.4%
- viability, T/C [25]: 108%
- viability, T/C [26]: 104%
- viability, T/C [27]: 88.6%
- viability, T/C [28]: 113%
- viability, T/C [29]: 94.1%
- viability, T/C [30]: 92.9%
- viability, T/C [31]: 101%
- viability, T/C [32]: 110%
- viability, T/C [33]: 107%
- viability, T/C [34]: 103%
- viability, T/C [35]: 104%
- viability, T/C [36]: 97.9%

Compound: CCc1cc2c(N3CCc4c(cc(Cn5ccnc5)cc4-c4cn(C)nc4C(F)(F)F)C3=O)ccnc2c(OC)n1 + Cc1cccc(N(C)C(=O)C2C(O)CCN2c2nc(C)cc(C(F)(F)F)c2C#N)c1
- IC50 (second compound 0.0316 µM): > 10 µM
- IC50 (second compound 0.1 µM): > 10 µM
- IC50 (second compound 0.316 µM): > 10 µM
- IC50 (second compound 1 µM): > 10 µM
- IC50 (second compound 3.16 µM): > 10 µM
- IC50 (second compound 10 µM): > 10 µM
- viability, T/C [1]: 96.1%
- viability, T/C [2]: 82.8%
- viability, T/C [3]: 96.2%
- viability, T/C [4]: 96.2%
- viability, T/C [5]: 106%
- viability, T/C [6]: 100%
- viability, T/C [7]: 90.7%
- viability, T/C [8]: 98.5%
- viability, T/C [9]: 107%
- viability, T/C [10]: 88.6%
- viability, T/C [11]: 112%
- viability, T/C [12]: 103%
- viability, T/C [13]: 96.7%
- viability, T/C [14]: 95.2%
- viability, T/C [15]: 97.2%
- viability, T/C [16]: 106%
- viability, T/C [17]: 109%
- viability, T/C [18]: 107%
- viability, T/C [19]: 102%
- viability, T/C [20]: 127%
- viability, T/C [21]: 107%
- viability, T/C [22]: 100%
- viability, T/C [23]: 93.6%
- viability, T/C [24]: 102%
- viability, T/C [25]: 93.8%
- viability, T/C [26]: 97.3%
- viability, T/C [27]: 100%
- viability, T/C [28]: 118%
- viability, T/C [29]: 119%
- viability, T/C [30]: 106%
- viability, T/C [31]: 114%
- viability, T/C [32]: 94.7%
- viability, T/C [33]: 111%
- viability, T/C [34]: 96.8%
- viability, T/C [35]: 108%
- viability, T/C [36]: 109%

Compound: O=C(Nc1ccc(O)c(NS(=O)(=O)c2ccc(F)cc2)c1)c1ccc(-c2ccccc2)cc1 + Cc1cccc(N(C)C(=O)C2C(O)CCN2c2nc(C)cc(C(F)(F)F)c2C#N)c1
- IC50 (second compound 0.0316 µM): > 10 µM
- IC50 (second compound 0.1 µM): > 10 µM
- IC50 (second compound 0.316 µM): > 10 µM
- IC50 (second compound 1 µM): > 10 µM
- IC50 (second compound 3.16 µM): > 10 µM
- IC50 (second compound 10 µM): > 10 µM
- viability, T/C [1]: 93.9%
- viability, T/C [2]: 98.5%
- viability, T/C [3]: 108%
- viability, T/C [4]: 86.1%
- viability, T/C [5]: 116%
- viability, T/C [6]: 107%
- viability, T/C [7]: 108%
- viability, T/C [8]: 102%
- viability, T/C [9]: 104%
- viability, T/C [10]: 88.9%
- viability, T/C [11]: 108%
- viability, T/C [12]: 105%
- viability, T/C [13]: 86.6%
- viability, T/C [14]: 106%
- viability, T/C [15]: 110%
- viability, T/C [16]: 103%
- viability, T/C [17]: 102%
- viability, T/C [18]: 108%
- viability, T/C [19]: 95%
- viability, T/C [20]: 111%
- viability, T/C [21]: 103%
- viability, T/C [22]: 104%
- viability, T/C [23]: 107%
- viability, T/C [24]: 109%
- viability, T/C [25]: 102%
- viability, T/C [26]: 94.8%
- viability, T/C [27]: 102%
- viability, T/C [28]: 90.8%
- viability, T/C [29]: 103%
- viability, T/C [30]: 112%
- viability, T/C [31]: 100%
- viability, T/C [32]: 106%
- viability, T/C [33]: 86.7%
- viability, T/C [34]: 95.2%
- viability, T/C [35]: 107%
- viability, T/C [36]: 115%

Compound: COc1cccc2c1C(=O)c1c(O)c3c(c(O)c1C2=O)CC(O)(C(=O)CO)CC3OC1CC(N)C(O)C(C)O1 (stereo not drawn) + Nc1ccc(C#CCN(C(=O)Cc2ncc(C(F)(F)F)cc2C(F)(F)F)c2ccc(F)cc2)nn1
- IC50 (second compound 0.0316 µM): 0.255 µM
- IC50 (second compound 0.1 µM): 0.253 µM
- IC50 (second compound 0.316 µM): 0.258 µM
- IC50 (second compound 1 µM): 0.236 µM
- IC50 (second compound 3.16 µM): 0.231 µM
- IC50 (second compound 10 µM): 0.173 µM
- viability, T/C [1]: 144%
- viability, T/C [2]: 110%
- viability, T/C [3]: 37.2%
- viability, T/C [4]: 1.35%
- viability, T/C [5]: 0.27%
- viability, T/C [6]: 1.66%
- viability, T/C [7]: 169%
- viability, T/C [8]: 107%
- viability, T/C [9]: 39%
- viability, T/C [10]: 1.35%
- viability, T/C [11]: 0.37%
- viability, T/C [12]: 1.4%
- viability, T/C [13]: 156%
- viability, T/C [14]: 106%
- viability, T/C [15]: 40.7%
- viability, T/C [16]: 1.12%
- viability, T/C [17]: 1.33%
- viability, T/C [18]: 0.64%
- viability, T/C [19]: 171%
- viability, T/C [20]: 106%
- viability, T/C [21]: 32.5%
- viability, T/C [22]: 1.58%
- viability, T/C [23]: 1.81%
- viability, T/C [24]: 2.38%
- viability, T/C [25]: 153%
- viability, T/C [26]: 101%
- viability, T/C [27]: 32.4%
- viability, T/C [28]: 0.94%
- viability, T/C [29]: 1.21%
- viability, T/C [30]: 1.74%
- viability, T/C [31]: 131%
- viability, T/C [32]: 76.4%
- viability, T/C [33]: 21.8%
- viability, T/C [34]: 1.09%
- viability, T/C [35]: 1.27%
- viability, T/C [36]: 0.63%
